Results as given in patent US9980943B2, “Methods of treating muscular dystrophy” (BOARD OF REGENTS OF THE NEVADA SYSTEM OF HIGHER EDUCATION, …, priority 2013, dated 2018).

How the values were obtained:
Format in all cases: cell-based, mouse
[1] = tested on: α7 integrin (LacZ reporter in α7βgal+/− myoblasts); test: Myoblast α7+/LacZ integrin FDG assay (Burkin assay in myoblasts, 96-well); conditions: α7+/LacZ myoblasts, 96-well
[2] = tested on: α7 integrin (LacZ reporter in α7+/LacZ myotubes); test: Myotube α7 integrin FDG assay (Burkin assay in myotubes, 96-well); conditions: myotubes
[3] = tested on: β-galactosidase in CMV-LacZ C2C12 myoblasts; test: CMV-LacZ secondary screen in C2C12 myoblasts (β-Gal stabilizing assay); conditions: CMV-LacZ C2C12 myoblasts
Outline: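 First, C2C12 myoblasts were transfected with a linearized CMV-LACZ vector and clonal lines selected by FDG β-gal assay. Then cells were exposed to compounds at 0.5, 1, 5, 10, 20 and 40 μM in 96-well format, two replicates each, and β-gal measured.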

[4] = tested on: β-galactosidase in CMV-LacZ C2C12 myotubes; test: CMV-LacZ secondary screen in C2C12 myotubes (β-Gal stabilizing assay); conditions: C2C12 CMV-LacZ myotubes, fold relative to DMSO
Outline: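 β-Gal level was the read-out, measured in a clonal C2C12 line expressing LacZ from a CMV promoter. Dose-response curves used six concentrations, 0.5 μM up to 40 μM, with duplicate points.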

Compound | Burkin Assay in Myoblasts, signal relative to DMSO ([1]; 0.5 uM) | Burkin Assay in Myoblasts, signal relative to DMSO ([1]; 1 uM) | Burkin Assay in Myoblasts, signal relative to DMSO ([1]; 5 uM) | Burkin Assay in Myoblasts, signal relative to DMSO ([1]; 10 uM) | Burkin Assay in Myoblasts, signal relative to DMSO ([1]; 20 uM) | Burkin Assay in Myoblasts, signal relative to DMSO ([1]; 40 uM) | Burkin Assay in Myotubes, α7 integrin LacZ reporter signal relative to DMSO ([2]; 0.5 uM) | Burkin Assay in Myotubes, α7 integrin LacZ reporter signal relative to DMSO ([2]; 1 uM) | Burkin Assay in Myotubes, α7 integrin LacZ reporter signal relative to DMSO ([2]; 5 uM) | Burkin Assay in Myotubes, α7 integrin LacZ reporter signal relative to DMSO ([2]; 10 uM) | Burkin Assay in Myotubes, α7 integrin LacZ reporter signal relative to DMSO ([2]; 20 uM) | Burkin Assay in Myotubes, α7 integrin LacZ reporter signal relative to DMSO ([2]; 40 uM) | CMV-LACZ in Myoblasts (β-galactosidase activity relative to DMSO) ([3]; 0.5 uM) | CMV-LACZ in Myoblasts (β-galactosidase activity relative to DMSO) ([3]; 1 uM) | CMV-LACZ in Myoblasts (β-galactosidase activity relative to DMSO) ([3]; 5 uM) | CMV-LACZ in Myoblasts (β-galactosidase activity relative to DMSO) ([3]; 10 uM) | CMV-LACZ in Myoblasts (β-galactosidase activity relative to DMSO) ([3]; 20 uM) | CMV-LACZ in Myoblasts (β-galactosidase activity relative to DMSO) ([3]; 40 uM) | CMV-LACZ in Myotubes, signal relative to DMSO ([4]; 0.5 uM) | CMV-LACZ in Myotubes, signal relative to DMSO ([4]; 1 uM) | other results
O=C(COc1ccc(Cl)cc1)N1CCN(C2CCCC2)CC1.O=C(O)C(=O)O [MLS001221318-01] | 1.118 | 1.283 | 1.01 | 0.9944 | 1.054 | 1.075 | 1.133 | 1.082 | 0.9266 | 0.9591 | 0.8071 | 0.7186 | 0.8528 | 1.0538 | 1.0999 | 0.9955 | 1.0181 | 1.5641 | 1.0037 | 1.4059 | CMV-LACZ in Myotubes, signal relative to DMSO ([4]; 5 uM): 1.1337; CMV-LACZ in Myotubes, signal relative to DMSO ([4]; 10 uM): 0.9944; CMV-LACZ in Myotubes, signal relative to DMSO ([4]; 20 uM): 1.2212; CMV-LACZ in Myotubes, signal relative to DMSO ([4]; 40 uM): 0.8576
CCc1nc2ccccc2c(C(=O)NCc2ccccc2)c1C [MLS000688267-01] | 1.092 | 1.104 | 1.358 | 0.9133 | 1.0466 | 1.107 | 0.9011 | 0.8373 | 1.132 | 1.101 | 0.8808 | 1.131 | 1.0950 | 1.1579 | 0.9129 | 0.8935 | 1.1407 | 1.0774 | 0.8648 | 1.1333 | CMV-LACZ in Myotubes, signal relative to DMSO ([4]; 5 uM): 0.9634; CMV-LACZ in Myotubes, signal relative to DMSO ([4]; 10 uM): 1.2248; CMV-LACZ in Myotubes, signal relative to DMSO ([4]; 20 uM): 0.9505; CMV-LACZ in Myotubes, signal relative to DMSO ([4]; 40 uM): 1.1505
O=c1[nH]c2ccccc2nc1-c1c[nH]c2ccccc12 [MLS001181936-01] | 0.8443 | 0.7562 | 0.8573 | 0.8219 | 0.51 | 0.3285 | 0.9197 | 0.7633 | 0.9856 | 1.024 | 0.5868 | 0.7387 | 0.8487 | 0.9273 | 0.7292 | 0.8296 | 0.7863 | 0.6130 | 1.0705 | 0.9886 | CMV-LACZ in Myotubes, signal relative to DMSO ([4]; 5 uM): 0.9246; CMV-LACZ in Myotubes, signal relative to DMSO ([4]; 10 uM): 1.0274; CMV-LACZ in Myotubes, signal relative to DMSO ([4]; 20 uM): 0.9020; CMV-LACZ in Myotubes, signal relative to DMSO ([4]; 40 uM): 1.0280
